For experiment [1], the system named is Serine/threonine-protein kinase B-raf (Homo sapiens), P15056 [V600E]. The experiment can be described thus: Inhibition of BRAF V600E mutant at 10 uM by ELISA. On the technique in general: In an ELISA, binding on a coated surface is turned into a signal by an enzyme label.
Experiment [2] has the same test system. Nature of the experiment: Inhibition of BRAF V600E mutant at 1 uM by ELISA.
Experiment [3] concerns the target Serine/threonine-protein kinase B-raf (Homo sapiens, UniProt P15056, V600E). The experiment can be described thus: Inhibition of BRAF V600E mutant by ELISA.

A value given as a limit tells only on which side of the number the result lay.

For orientation: inhibition means the drop in the measured response relative to a control, in per cent. Higher therefore signals strong suppression. By IC50 is commonly meant the point on the concentration scale where inhibition reaches its midpoint.

Serine/threonine-protein kinase B-raf (Homo sapiens), P15056 [V600E], sequence (P15056 whole entry V600E): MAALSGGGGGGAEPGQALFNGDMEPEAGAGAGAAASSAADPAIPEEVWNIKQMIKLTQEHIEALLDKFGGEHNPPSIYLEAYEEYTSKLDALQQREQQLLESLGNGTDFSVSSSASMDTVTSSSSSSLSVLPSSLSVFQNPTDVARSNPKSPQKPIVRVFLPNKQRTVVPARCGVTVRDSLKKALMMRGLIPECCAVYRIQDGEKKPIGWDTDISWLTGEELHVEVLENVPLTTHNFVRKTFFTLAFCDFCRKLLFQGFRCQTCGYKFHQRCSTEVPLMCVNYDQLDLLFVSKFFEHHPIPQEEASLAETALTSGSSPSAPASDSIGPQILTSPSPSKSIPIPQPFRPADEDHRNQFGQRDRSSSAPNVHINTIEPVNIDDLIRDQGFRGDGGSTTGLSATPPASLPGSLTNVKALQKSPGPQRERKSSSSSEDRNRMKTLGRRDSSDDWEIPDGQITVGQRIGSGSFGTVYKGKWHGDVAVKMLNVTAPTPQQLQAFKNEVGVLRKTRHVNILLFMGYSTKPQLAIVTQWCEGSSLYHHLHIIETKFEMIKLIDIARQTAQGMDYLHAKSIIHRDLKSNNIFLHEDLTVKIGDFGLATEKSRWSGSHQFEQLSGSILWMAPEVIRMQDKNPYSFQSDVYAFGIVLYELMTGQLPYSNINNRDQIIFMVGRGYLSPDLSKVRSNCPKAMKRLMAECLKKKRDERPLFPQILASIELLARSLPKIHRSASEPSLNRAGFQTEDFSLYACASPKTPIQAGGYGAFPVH
Serine/threonine-protein kinase B-raf, sequence (P15056 2-766 V600E limits assumed): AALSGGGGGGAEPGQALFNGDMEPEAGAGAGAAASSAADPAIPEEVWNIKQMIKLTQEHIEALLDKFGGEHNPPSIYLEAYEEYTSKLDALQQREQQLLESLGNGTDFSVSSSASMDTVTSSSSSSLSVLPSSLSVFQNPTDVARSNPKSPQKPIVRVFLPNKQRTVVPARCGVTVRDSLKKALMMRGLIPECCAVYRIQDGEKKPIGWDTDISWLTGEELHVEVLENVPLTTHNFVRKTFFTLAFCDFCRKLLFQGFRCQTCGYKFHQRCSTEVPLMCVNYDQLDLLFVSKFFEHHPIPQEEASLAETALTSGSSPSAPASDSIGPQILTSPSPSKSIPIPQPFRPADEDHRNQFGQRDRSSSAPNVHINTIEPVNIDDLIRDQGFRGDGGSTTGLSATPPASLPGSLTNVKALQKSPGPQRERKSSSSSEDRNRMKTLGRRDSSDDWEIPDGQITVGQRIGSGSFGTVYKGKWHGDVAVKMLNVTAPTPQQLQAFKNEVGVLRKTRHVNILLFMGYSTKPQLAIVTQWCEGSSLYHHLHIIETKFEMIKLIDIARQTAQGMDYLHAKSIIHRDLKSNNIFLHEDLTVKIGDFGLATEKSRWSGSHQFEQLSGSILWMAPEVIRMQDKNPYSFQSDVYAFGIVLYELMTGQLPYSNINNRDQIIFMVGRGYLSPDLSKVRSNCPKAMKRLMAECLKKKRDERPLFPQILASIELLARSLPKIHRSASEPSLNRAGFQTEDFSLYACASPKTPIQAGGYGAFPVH

For the compound `Cc1ccc(N2C(=O)/C(=C\c3ccc(-c4ccc(C(=O)O)cc4)o3)C(=O)NC2=S)cc1`, the inhibition was found to be 97% in experiment [1] and 35% in experiment [2]. For the same compound, half-maximal inhibition in experiment [3] (IC50) required 1600 nM.
Turning to `COc1cc(C=C2C(=O)NC(=S)NC2=O)ccc1OC(=O)c1cccc(F)c1`, the inhibition in experiment [1] is 28%; in experiment [2], less than 5%.
The like results for `COc1ccc(C=C2C(=O)NC(=S)NC2=O)cc1OC(=O)c1ccc(C)cc1` were, in that order, 38% and less than 5%.
For `Cc1ccc(N2C(=O)/C(=C\c3ccc(CN(CCC#N)S(C)(=O)=O)o3)C(=O)NC2=S)cc1Cl`, the inhibition is 99% in experiment [1] and 68% in experiment [2]. The compound also registered a concentration for half-maximal inhibition (IC50) in experiment [3] of 310 nM.
Regarding `CCOc1cc(C=C2C(=O)NC(=S)NC2=O)ccc1O`, the inhibition in experiment [1] is 68%; in experiment [2] it was 15%.
As to `O=C1NC(=S)NC(=O)C1=Cc1ccc(OCC(=O)N2CCCC2)cc1`, the inhibition in experiment [1] was 52%; in experiment [2], 9%.
Consider `O=C1NC(=S)NC(=O)C1=Cc1ccc(-c2ccccc2[N+](=O)[O-])o1`, for which the inhibition is 93% in experiment [1] and 55% in experiment [2]. The same compound returned an IC50 in experiment [3] of 670 nM.
The like results for `O=C1NC(=S)N(c2ccc(Br)cc2)C(=O)/C1=C\c1ccc(-c2ccccc2C(=O)O)o1` were, in that order, 100%, 32% and 3450 nM.
In the case of `Cc1ccc(N2C(=O)/C(=C\c3ccc(-c4ccc(C(=O)O)c(Cl)c4)o3)C(=O)NC2=S)cc1`, the inhibition was determined as 99% in experiment [1] and 28% in experiment [2]. The compound further had an IC50 in experiment [3] of 3240 nM.
With `CCCS(=O)(=O)Nc1ccc(F)c(C(=O)c2c[nH]c3ncc(-c4ccc(Cl)cc4)cc23)c1F`, the inhibition in experiment [1] was 92%; in experiment [2] it was 72%.
For the compound `CS(=O)(=O)N(CCC#N)Cc1ccc(/C=C2/C(=O)NC(=S)N(c3ccc(Br)cc3)C2=O)o1`, the inhibition in experiment [1] stood at 96%; in experiment [2], 88%. For the same compound, the IC50 in experiment [3] stood at 440 nM.
Take `Cc1ccc(N2C(=O)/C(=C\c3ccc(-c4ccc(Cl)c(C(=O)O)c4)o3)C(=O)NC2=S)cc1`: the inhibition is 71% in experiment [1] and 5% in experiment [2].
For `COc1ccc(C=C2C(=O)NC(=S)NC2=O)cc1OCc1ccc(Br)cc1` the same measures were 87% and 12%.
In the case of `O=C1NC(=S)NC(=O)C1=Cc1ccc(-c2cccc([N+](=O)[O-])c2)o1`, the inhibition in experiment [1] amounted to 85%; in experiment [2], 48%. In experiment [3], this compound had an IC50 of 830 nM.
For `O=C1NC(=S)N(c2ccc(Br)cc2)C(=O)/C1=C\c1ccc(-c2ccc(C(=O)O)c(Cl)c2)o1` the same measures were 89%, 28% and 4750 nM.
Consider `CC(C)COC(=O)c1ccc(-c2ccc(C=C3C(=O)NC(=S)NC3=O)o2)cc1`, for which the inhibition in experiment [1] was found to be 37%; in experiment [2], 31%.
Regarding `COc1cccc(N2C(=O)/C(=C\c3ccc(CN(CCC#N)S(C)(=O)=O)o3)C(=O)NC2=S)c1`, the inhibition is 74% in experiment [1] and 32% in experiment [2]. Further, the IC50 in experiment [3] came out at 1840 nM.
For `O=C1NC(=S)N(c2cccc(Cl)c2Cl)C(=O)/C1=C\c1ccc(-c2ccc(C(=O)O)cc2)o1` the same measures were 100%, 46% and 1540 nM.
Turning to `O=C1NC(=S)NC(=O)C1=Cc1ccc(Oc2ccc([N+](=O)[O-])cn2)cc1`, the inhibition in experiment [1] was 41%; in experiment [2], less than 5%.
For the compound `O=C1NC(=S)NC(=O)C1=Cc1cccc(OC(=O)c2cccc(F)c2)c1`, the inhibition came out at 19% in experiment [1] and 17% in experiment [2].
Turning to `CCOc1ccc(N2C(=O)/C(=C\c3ccc(CN(CCC#N)S(C)(=O)=O)o3)C(=O)NC2=S)cc1`, the inhibition was determined as 91% in experiment [1] and 43% in experiment [2]. In experiment [3], this compound displayed an IC50 of 1140 nM.
As to `Cc1ccc(N2C(=O)/C(=C\c3ccc(-c4ccc(F)cc4)o3)C(=O)NC2=S)cc1`, the inhibition in experiment [1] is 74%; in experiment [2], 13%. This compound registered a 50% inhibitory concentration (IC50) in experiment [3] of 4110 nM.
Turning to `COc1ccc(C=C2C(=O)NC(=S)NC2=O)cc1OC(=O)c1cccc(Cl)c1`, the inhibition in experiment [1] was found to be 88%; in experiment [2], 9%.
Regarding `O=C1NC(=S)N(c2ccc(Br)cc2)C(=O)/C1=C\c1ccc(-c2ccc(C(=O)O)cc2)o1`, the figures for the inhibition in experiment [1] and in experiment [2] were 97% and 38%, respectively. In addition, the IC50 in experiment [3] came out at 2230 nM.
For `CCOC(=O)c1ccccc1-c1ccc(/C=C2/C(=O)NC(=S)N(c3ccc(C)cc3)C2=O)o1` the same measures were 88%, 56% and 1020 nM.
`CCOc1cc(C=C2C(=O)NC(=S)NC2=O)ccc1OCC(=O)Nc1cccc(C)c1`: the values for the inhibition in experiment [1] and in experiment [2] were 81% and 23%, respectively.
`Cc1cccc(C)c1OCCOc1ccc(C=C2C(=O)NC(=S)NC2=O)cc1`: the values for the inhibition in experiment [1] and in experiment [2] were 95% and 42%, respectively.
Consider `COc1cc(C=C2C(=O)NC(=S)NC2=O)ccc1OCCC(C)C`, for which the inhibition is 81% in experiment [1] and 21% in experiment [2].
Consider `Cc1ccc(N2C(=O)/C(=C\c3ccc(-c4cccc(C(=O)O)c4)o3)C(=O)NC2=S)cc1`, for which the inhibition was 98% in experiment [1] and 33% in experiment [2]. Besides, half-maximal inhibition in experiment [3] (IC50) required 4020 nM.
The like results for `CS(=O)(=O)N(CCC#N)Cc1ccc(/C=C2/C(=O)NC(=S)N(c3ccc(Cl)c(Cl)c3)C2=O)o1` were, in that order, 97%, 60% and 820 nM.
`CCOc1ccc(C=C2C(=O)NC(=S)NC2=O)cc1Cl`: the inhibition in experiment [1] was found to be 71%; in experiment [2], 12%.
As for `O=C1NC(=S)NC(=O)C1=Cc1ccc(OCc2ccccc2)c(Cl)c1`, the inhibition in experiment [1] was determined as 91%; in experiment [2], 31%.
Consider `Cc1ccc(Cl)cc1-c1ccc(C=C2C(=O)NC(=S)NC2=O)o1`, for which the inhibition in experiment [1] turned out to be 75%; in experiment [2], 54%.
Regarding `COC(=O)c1ccccc1-c1ccc(/C=C2/C(=O)NC(=S)N(c3ccc(C)cc3)C2=O)o1`, the inhibition is 88% in experiment [1] and 37% in experiment [2]. Besides, the IC50 in experiment [3] is 1650 nM.
For `Cc1cccc(N2C(=O)/C(=C\c3ccc(CN(CCC#N)S(C)(=O)=O)o3)C(=O)NC2=S)c1` the same measures were 84%, 55% and 500 nM.
`Cc1ccc([N+](=O)[O-])cc1-c1ccc(C=C2C(=O)NC(=S)NC2=O)o1`: the inhibition amounted to 57% in experiment [1] and 51% in experiment [2].
For `O=C1NC(=S)NC(=O)C1=Cc1ccc(-c2ccc([N+](=O)[O-])cc2)o1`, the inhibition was determined as 91% in experiment [1] and 59% in experiment [2]. For the same compound, in experiment [3], the midpoint of inhibition, the IC50, lay at 730 nM.
As to `COC(=O)c1cc(Br)ccc1-c1ccc(C=C2C(=O)NC(=S)NC2=O)o1`, the inhibition in experiment [1] worked out at 86%; in experiment [2], 61%.
On to `COc1ccc(C=C2C(=O)NC(=S)NC2=O)cc1OC(=O)c1ccccc1`, for which the inhibition in experiment [1] was 77%; in experiment [2], 46%. For the same compound, the IC50 in experiment [3] turned out to be 4010 nM.
The like results for `Cc1ccc(N2C(=O)/C(=C\c3ccc(CN(CCC#N)S(C)(=O)=O)o3)C(=O)NC2=S)cc1` were, in that order, 99%, 48% and 970 nM.
For the compound `N#Cc1ccccc1-c1ccc(C=C2C(=O)NC(=S)NC2=O)o1`, the figures for the inhibition in experiment [1] and in experiment [2] were 93% and 60%, respectively. This compound also displayed an IC50 in experiment [3] of 740 nM.
For `COc1cc(C=C2C(=O)NC(=S)NC2=O)ccc1OCCO`, the inhibition is 34% in experiment [1] and less than 5% in experiment [2].
In the case of `Cc1c(Cl)cccc1N1C(=O)/C(=C\c2ccc(-c3ccc(C(=O)O)cc3)o2)C(=O)NC1=S`, the inhibition in experiment [1] was 100%; in experiment [2], 38%. The compound further showed an IC50 in experiment [3] of 2490 nM.
For the compound `O=C1NC(=S)N(c2ccc(Br)cc2)C(=O)/C1=C\c1ccc(-c2cccc(C(=O)O)c2)o1`, the inhibition in experiment [1] was 100%; in experiment [2], 43%. Also, it took 1800 nM to reach half-maximal inhibition in experiment [3] (IC50).
Take `COc1cc(C=C2C(=O)NC(=S)NC2=O)ccc1OC(F)F`: the inhibition in experiment [1] stood at 17%; in experiment [2] it was 14%.
The like results for `CCN(C)c1ccc(-c2ccc(C=C3C(=O)NC(=S)NC3=O)cc2)cc1` were, in that order, less than 5% and less than 5%.
